Measurements from PubChem BioAssay (NCI).
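A five-concentration, 48-hour dose response in 96-well plates underlies each endpoint, interpolated linearly between surrounding concentrations. GI50: concentration for 50% inhibition of growth. The concentration for full growth arrest is given as TGI.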

Tests used:
Assay in all cases: growth of human tumour cells (NCI), 48 h
TK-10 renal = tested on: TK-10 renal
RXF 393 renal = tested on: RXF 393 renal
HS 578T breast = tested on: HS 578T breast
BT-549 breast = tested on: BT-549 breast
SW-620 colon = tested on: SW-620 colon
MOLT-4 leukemia = tested on: MOLT-4 leukemia
NCI-H522 lung = tested on: NCI-H522 lung
ACHN renal = tested on: ACHN renal
UACC-257 melanoma = tested on: UACC-257 melanoma
LOX IMVI melanoma = tested on: LOX IMVI melanoma

SMILES	GI50 (TK-10 renal)	TGI (TK-10 renal)	GI50 (RXF 393 renal)	TGI (RXF 393 renal)	GI50 (HS 578T breast)	TGI (HS 578T breast)	GI50 (BT-549 breast)	TGI (BT-549 breast)	GI50 (SW-620 colon)	TGI (SW-620 colon)	GI50 (MOLT-4 leukemia)	TGI (MOLT-4 leukemia)	GI50 (NCI-H522 lung)	TGI (NCI-H522 lung)	GI50 (ACHN renal)	TGI (ACHN renal)	GI50 (UACC-257 melanoma)	TGI (UACC-257 melanoma)	GI50 (LOX IMVI melanoma)	TGI (LOX IMVI melanoma)
N#Cc1c(SCc2ccccc2)nc2[nH]c(=S)[nH]c(=S)c2c1-c1ccco1	15.2 µM	72.1 µM	37.9 µM	> 100 µM	70.6 µM	> 100 µM	21 µM	> 100 µM	33.9 µM	> 100 µM	5.04 µM	> 100 µM	> 100 µM	> 100 µM	> 100 µM	> 100 µM	66.5 µM	> 100 µM	> 100 µM	> 100 µM
O=c1[nH]cnc2c1nnn2[C@@H]1O[C@H](CO)[C@@H](O)[C@H]1O	9.1 µM	> 100 µM	4.31 µM	> 100 µM	17.6 µM	> 100 µM	9.81 µM	> 100 µM	3.01 µM	> 100 µM	1.96 µM	22.9 µM	4.55 µM	63.4 µM	2.87 µM	> 100 µM	28.6 µM	> 100 µM	2.14 µM	> 100 µM
O=C1NC(=O)[C@H]2C3C=CC([C@@H]12)[C@@H]1C(=O)NC(=O)[C@H]31	–	> 100 µM	–	> 100 µM	–	> 100 µM	–	> 100 µM	–	> 100 µM	–	> 100 µM	–	> 100 µM	–	> 100 µM	–	> 100 µM	–	> 100 µM
O=C(Nc1cccc(-c2nc3ccccc3[nH]2)c1)c1cccc(NC(=O)c2ccco2)c1	2.88 µM	6.66 µM	1.51 µM	3.55 µM	2.2 µM	5.97 µM	1.85 µM	3.92 µM	3.19 µM	10.8 µM	2.96 µM	12 µM	2.5 µM	6.41 µM	1.68 µM	3.17 µM	2.3 µM	5.34 µM	1.93 µM	3.88 µM
O=[N+]([O-])c1ccccc1/C=C/C=C1c2ccccc2-c2ccccc21	> 100 µM	> 100 µM	> 100 µM	> 100 µM	> 100 µM	> 100 µM	> 100 µM	> 100 µM	> 100 µM	> 100 µM	> 100 µM	> 100 µM	> 100 µM	> 100 µM	> 100 µM	> 100 µM	> 100 µM	> 100 µM	> 100 µM	> 100 µM
O=C1C(Br)=C(c2ccccc2)C(c2ccccc2)=C1c1ccccc1	–	7.12 µM	–	3.92 µM	–	40.5 µM	–	10.9 µM	–	3.26 µM	–	3.74 µM	–	1.77 µM	–	6.51 µM	–	9.67 µM	–	2.94 µM
OCC1OC(O)C(N=Cc2ccc3c(c2)OCO3)C(O)C1O (stereo not given)	–	> 100 µM	–	> 100 µM	–	> 100 µM	–	> 100 µM	–	> 100 µM	–	> 100 µM	–	> 100 µM	–	> 100 µM	–	> 100 µM	–	> 100 µM
O=C1CN2CCC1C/C2=C\c1ccnc2c(Cl)cccc12 (stereo not given)	> 100 µM	> 100 µM	> 100 µM	> 100 µM	> 100 µM	> 100 µM	> 100 µM	> 100 µM	> 100 µM	> 100 µM	44.4 µM	> 100 µM	53.5 µM	> 100 µM	85.3 µM	> 100 µM	59.7 µM	> 100 µM	52.2 µM	> 100 µM
